Test results as given in patent publication US20260042746A1, “2(1H)-PYRIDINIMINE DERATIVE” (SUMITOMO PHARMA CO., LTD., priority 2022, published 2026).

Columns and labels:
Assay type in all cases: cell-based
α-synuclein aggregate [1] = experiment: Test 2: suppressing the accumulation of α-synuclein aggregate in neurospheroid from PLA2G6 mutant human iPS cells; conditions: compound added day 4, measured day 9, DMSO = 100%; for activity at 0.1 µM: 100 nM, read-out: Amount of aggregate (%) 100 nM; for activity at 1 µM: 1000 nM, read-out: Amount of aggregate (%) 1000 nM
Procedure: Test 2: Evaluation of Suppressing the Accumulation of α-Synuclein Aggregate with Neurospheroid Prepared from Human iPS Cells with a Mutation in PLA2G6 Gene
(§1) (1) Induction of Differentiation from Human iPS Cell to Neural Cell
Neural stem cells were induced from PLA2G6 gene mutant iPS cells with PSC Neuronal Induction Medium (Thermo Fisher Scientific Inc., cat #A1647801). Neurospheroid was prepared from the induced neural stem cells by three-dimensional culture system, and preserved with BrainPhys Neuronal Medium (STEMCELL Technologies, cat #ST-05793) comprising NeuroCult SM1 Neuronal Supplement, N2 Supplement-A, 20 ng/mL BDNF, 20 ng/mL GDNF, 1 mM dibutyryl cAMP, and 200 nM ascorbic acid. Half of the culture medium was replaced on day 2 and day 4 after the induction of differentiation.
The test compound was diluted with the culture medium so as to be twice the final concentration, and an equal volume of the twice-concentrated solution was added to each well when half of the culture medium was replaced on day 4 after induction of differentiation.
(§2) (2) Evaluation of the Amount of α-Synuclein Aggregate
(§3) From the neurospheroid 9 days after the induction of differentiation, proteins were extracted with a TBS solution containing 1% TritionX-100, and the extracted proteins were subjected to a protein analysis with Simple Western system (Protein Simple, Inc., cat #SM-W008) using an α-synuclein antibody (Thermo Fisher Scientific Inc., cat #AHB0261) to measure the amount of the α-synuclein aggregate.
Assuming that the amount of the aggregate in the neurospheroid added with a DMSO solution is 100%, the amount of the aggregate in the neurospheroid added with each test compound was evaluated.

α-synuclein aggregate [2] = experiment: Test 3: reducing the accumulation of α-synuclein aggregate in neurospheroid from PLA2G6 mutant human iPS cells; conditions: compound added day 10, measured day 15, DMSO = 100%
Procedure: Test 3: Evaluation of Reducing the Accumulation of α-Synuclein Aggregate with Neurospheroid Prepared from Human iPS Cells with a Mutation in PLA2G6 Gene
as §1
(§4) Neural stem cells were induced from PLA2G6 gene mutant iPS cells with PSC Neuronal Induction Medium (Thermo Fisher Scientific Inc., cat #A1647801). Neurospheroid was prepared from the induced neural stem cells by three-dimensional culture system, and preserved with BrainPhys Neuronal Medium (STEMCELL Technologies, cat #ST-05793) comprising NeuroCult SM1 Neuronal Supplement, N2 Supplement-A, 20 ng/mL BDNF, 20 ng/mL GDNF, 1 mM dibutyryl cAMP, and 200 nM ascorbic acid. Half of the culture medium was replaced every 3 or 4 days after the induction of differentiation.
The test compound was diluted with the culture medium so as to be twice the final concentration, and an equal volume of the twice-concentrated solution was added to each well when half of the culture medium was replaced on day 10 after induction of differentiation.
as §2
as §3, with “15” for “9”
(§5) The amount of the aggregate in the neurospheroid added with each test compound was measured. Assuming that the amount of the aggregate in the neurospheroid added with a DMSO solution is 100%, the amount of the aggregate in the test samples was evaluated.

α-synuclein aggregate [3] = experiment: Test 5: suppressing the accumulation of α-synuclein aggregate in dopamine neurospheroid from PLA2G6 mutant human iPS cells; conditions: compound added day 21, measured day 26, DMSO = 100%
Procedure: Test 5: Evaluation of Suppressing the Accumulation of α-Synuclein Aggregate with Dopamine Neurospheroid Prepared From Human iPS Cells with a Mutation in PLA2G6 Gene
as §1
as §4, with “Dopaminergic progenitor” for “Neural stem”, “dopaminergic neuron differentiation kit” for “PSC Neuronal Induction Medium”, “#A3147701). Dopamine neurospheroid” for “#A1647801). Neurospheroid”, “dopaminergic progenitor” for “neural stem”
The test compound was diluted with the culture medium so as to be twice the final concentration, and an equal volume of the twice-concentrated solution was added to each well when half of the culture medium was replaced on day 21 after induction of differentiation.
as §2
as §3, with “From the dopamine neurospheroid 26” for “From the neurospheroid 9”, “dopamine neurospheroid 26 days after” for “the neurospheroid 9 days after”
as §5

α-synuclein aggregate [4] = experiment: Test 11: reducing the accumulation of α-synuclein aggregate in dopamine neurospheroid from GBA1 mutant human iPS cells; conditions: compound added day 40, measured day 44, DMSO = 100%
Procedure: Test 11: Evaluation of Reducing the Accumulation of α-Synuclein Aggregate with Dopamine Neurospheroid Prepared From Human iPS Cells with a Mutation in GBA1 Gene
as §1
as §4, with “Dopaminergic progenitor” for “Neural stem”, “GBA1” for “PLA2G6”, “dopaminergic neuron differentiation kit” for “PSC Neuronal Induction Medium”, “#A3147701). Dopamine neurospheroid” for “#A1647801). Neurospheroid”, “dopaminergic progenitor” for “neural stem”, “days.” for “days after the induction of differentiation.”
The test compound was diluted with the culture medium so as to be twice the final concentration, and an equal volume of the twice-concentrated solution was added to each well when half of the culture medium was replaced on day 40 after induction of differentiation.
as §2
as §3, with “From the dopamine neurospheroid 44” for “From the neurospheroid 9”, “dopamine neurospheroid 44 days after” for “the neurospheroid 9 days after”
as §5

| SMILES | activity at 0.1 µM (α-synuclein aggregate [1]) [%] | activity at 1 µM (α-synuclein aggregate [1]) [%] | Amount of aggregate (%) 100 nM (α-synuclein aggregate [2]) [%] | Amount of aggregate (%) 1000 nM (α-synuclein aggregate [2]) [%] | Amount of aggregate (%) 100 nM (α-synuclein aggregate [3]) [%] | Amount of aggregate (%) 1000 nM (α-synuclein aggregate [3]) [%] | Amount of aggregate (%) 100 nM (α-synuclein aggregate [4]) [%] | Amount of aggregate (%) 1000 nM (α-synuclein aggregate [4]) [%] |
| --- | --- | --- | --- | --- | --- | --- | --- | --- |
| CCC1(C(=O)/N=c2\ccccn2C)COC1 [Example 1, 3-Ethyl-N-[(2E)-1-methylpyridin-2(1H)-ylidene]oxetane-3-carboxamide] | 20 | 21 | 23 | 18 | 9 | 13 | 12 | 19 |
| Cn1cccc/c1=N\C(=O)C1(C)COC1 [Example 2, 3-methyl-N-[(2E)-1-methylpyridin-2(1H)-ylidene]oxetane-3-carboxamide] | 31 | 38 | 36 | 35 | 24 | 3 | 42 | 37 |
| CCn1cccc/c1=N\C(=O)C1(C)COC1 [Example 3, N-[(2E)-1-ethylpyridin-2(1H)-ylidene]-3-methyloxetane-3-carboxamide] | 35 | 74 | 19 | 70 | 28 | 78 | 44 | 39 |
| CCC1(C(=O)/N=c2\cc(OC)ccn2C)COC1 [Example 9, 3-ethyl-N-[(2E)-4-methoxy-1-methylpyridin-2(1H)-ylidene]oxetane-3-carboxamide] | 4 | 3 | 52 | 37 | 5 | 28 | – | – |
| CCC1(C(=O)/N=c2\ccc(F)cn2C)COC1 [Example 31, 3-ethyl-N-[(2E)-5-fluoro-1-methylpyridin-2(1H)-ylidene]oxetane-3-carboxamide] | 25 | 53 | 23 | 19 | 13 | 12 | – | – |
| COc1ccn(C)/c(=N/C(=O)C2(C)CN(C)C2)c1 [Example 51, N-[(2E)-4-methoxy-1-methylpyridin-2(1H)-ylidene]-1,3-dimethylazetidine-3-carboxamide] | 4 | 9 | 12 | 10 | 27 | 31 | 16 | 30 |
| COc1c/c(=N\C(=O)C2(C)CN(C)C2)n(C)cc1Cl [Example 60, N-[(2E)-5-chloro-4-methoxy-1-methylpyridin-2(1H)-ylidene]-1,3-dimethylazetidine-3-carboxamide] | 44 | 15 | 9 | 9 | 21 | 15 | – | – |
| Cn1cccc/c1=N\C(=O)N1CCOC(C)(C)C1 [Example 75, 2,2-Dimethyl-N-[(2E)-1-methylpyridin-2(1H)-ylidene]morpholine-4-carboxamide] | 49 | 63 | – | – | – | – | – | – |
| Cn1cccc/c1=N\C(=O)N1C[C@H]2CC[C@@H](C1)O2 [Example 76] | 44 | 67 | – | – | – | – | – | – |
